# Columns and labels:
# [1] = test system: honey bee, A. mellifera; assay: Acute topical toxicity to adult honey bees; assay type: in vivo, Apis mellifera; conditions: bifenthrin positive control, 0.3 μg per bee (0.1 μg/bee) topical, 48 h
# Protocol: Frames of late-stage honey bee (A. mellifera) pupae were taken from four colonies at The Ohio State University Honey Bee Lab in Wooster, OH and maintained in a dark humid incubator at 34 °C (Darwin Chambers Co., St. Louis, MO, model H024) until adult bees emerged. New adults were brushed from frames daily and placed in wooden screen cages (21 × 14 × 12 cm) provisioned with 1:1 (w/w) sucrose in water.
# Acute toxicity experiments in adult bees were performed as follows. Twenty-four hours after emergence, adult honey bees in cages were anaesthetized with carbon dioxide, divided into groups of approximately 20 bees and placed in plastic-coated paper cups (177 cm^3; UNIQ Paper Yogurt Cup, Frozen Dessert Supplies, Gilbert, AZ) covered with cotton cheesecloth. […] As a positive control, some bees were treated with 3 μl of bifenthrin (0.1 μg/μl); negative controls consisted of bees treated with 3 μl of solvent. Applications were made using a 20 μl micropipette (Fisherbrand Finnpipette F2, Fisher Scientific, Pittsburgh, PA) with disposable plastic tips. After treatment, bees were returned to the paper cups and provided with sugar syrup in punctured 1.5 ml microcentrifuge tubes. […] Bees showing no movement on inspection at 48 h after treatment were scored as dead.
# [2] = test system: mosquito Kir1 channels; design: method as in PMID 24959745; conditions: read-out: IC50 against mosquito Kir1 channels in vitro; cited from earlier work
# [3] = test system: mosquitoes; design: method as in PMID 24959745; conditions: cited from earlier work
# [4] = target: T1, AnKir1 (Anopheles gambiae, UniProt A0A075M2J8); assay: Tl+ flux assay in T-REx-HEK293 cells expressing AnKir1; assay type: cell-based; conditions: Tl+ flux; for IC50: Tables S2/S3 and supplemental text, read-out: AnKir1 IC50
# T1 sequence (A0A075M2J8 1-555): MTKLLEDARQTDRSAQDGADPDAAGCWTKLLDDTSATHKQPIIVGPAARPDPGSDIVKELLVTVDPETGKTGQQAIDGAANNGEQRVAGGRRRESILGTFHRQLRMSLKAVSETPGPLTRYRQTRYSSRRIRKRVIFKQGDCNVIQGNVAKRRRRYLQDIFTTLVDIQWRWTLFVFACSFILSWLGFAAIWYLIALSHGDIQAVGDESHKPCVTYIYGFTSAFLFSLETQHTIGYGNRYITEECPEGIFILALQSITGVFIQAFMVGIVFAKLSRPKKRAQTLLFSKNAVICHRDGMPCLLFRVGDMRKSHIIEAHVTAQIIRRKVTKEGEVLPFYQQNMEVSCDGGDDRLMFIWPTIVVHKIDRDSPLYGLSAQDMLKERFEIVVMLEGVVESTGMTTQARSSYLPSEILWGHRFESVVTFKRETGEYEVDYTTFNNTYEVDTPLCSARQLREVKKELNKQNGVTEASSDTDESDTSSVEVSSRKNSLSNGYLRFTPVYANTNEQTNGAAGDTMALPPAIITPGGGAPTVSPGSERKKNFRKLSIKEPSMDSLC
# Protocol: Tl^+ flux assays were performed essentially as described previously. Briefly, stably transfected T-Rex-HEK-293 cells expressing AnKir1 channels were cultured overnight in 384-well plates (20,000 cells/20 μL/well black-walled, clear-bottomed BD PureCoat amine-coated plates (BD, Bedford, MA) with a plating media containing DMEM, 10% dialyzed FBS and 1 μg/mL tetracycline. Approximately twenty-four hours after cell plating, the cell culture medium was replaced with a dye-loading solution containing assay buffer (Hanks Balanced Salt Solution with 20 mM HEPES, pH 7.3), 0.01% (w/v) Pluronic F-127 (Life Technologies, Carlsbad, CA), and 1.2 μM of the thallium-sensitive dye Thallos-AM (TEFlabs, Austin, TX). Following 1 hr incubation at room temperature, the dye-loading solution was washed from the plates and replaced with 20 μL/well of assay buffer.
# Tl+ flux assay development
# Tl+ flux assays were performed essentiall y as described previousl y (1). Briefl y, stabl y transfect ed T-Rex -HEK- 293- AnKir1 cells were cultured overnight in 384-well plates in media containing DMEM, 10% dial yz ed FBS and 1μg/ m L tetrac ycline to induce channel expression
# (Fig. S1A). The next day, the cell culture medium was replaced with a dye-loading solution containing assay buffer (Hanks Balanced Salt Solution with 20 mM HEPES, pH 7.3), 0.01% (w/v) Pluronic F-127 (Li fe Technologies, Carlsbad, CA), and 1.2 μM of the thallium-sensitive dye Thallos-AM (TEFl abs, Austin, TX). Following 1 hr incubation at room temperature, the d ye-loading solution was washed from the plates and replaced with 20 μ L/well of assa y buffer. The plates were transferred t o a Ham amatsu Functional Drug Screening System 6000 (FDSS6000; Hamamatsu, Tokyo, J apan) where 20 μ L/well of test compounds in assay buffer (as prepared below) were added and allowed to incubate with the cells for 20 min. After the incubation period, a baseline recordi ng was collected at 1 Hz for 10 s (excitation 470 ± 20 nm, emission 540 ± 30 nm) followed by a t hallium stimulus buffer addition (10 μL/well) and data collection for an additional 4 min. The Tl + stimulus buffer contains in (mM) 125 NaHCO3, 1.8 CaSO4, 1 MgSO4, 5 glucose, 12 Tl2SO4, 10 HEPES, pH 7.4. For Tl + flux assays on Kir2.x, Kir4.1 and Kir6.2/SUR1 ex pressing cells, the Tl+ stimulus buffer contained 1.8 mM Tl 2SO4. To ensure the small-molecule vehicle DMSO had no direct effect on An Ki r1-dependent Tl+ flux, the assa y’s tolerance to different doses of DMSO was evaluated (Fig. S1B). The robustness and reproducibility of the assay was determined by comparing Tl+ flux through tetracycline-induced and tetracycline-uninduced cells (Fig. S1C). The Z’ value was calculated as described previously (1 ), using the […]
# Z’ = 1- (3SD p + 3SD n)/ |meanp + meann | where SD is standard deviation, p and n are control and uninduced flux values respectivel y.
# To compare the effect of DMSO on An Kir1-mediated Tl+ flux, a one-way ANOVA was performed with a Tuke y’s multiple comparison test. Prism software (GraphPad Software) was used to generate CRC from Tl+ fl ux ..Half-inhibition concentration (IC50) values were calculated from fits using a four parameter logistic equation.
# High-throughput screeni ng
# The test compounds were transferred to daughter pol yprop ylene 384-well plates (G reiner Bio-One, Monroe, NC) using an Echo555 liquid handler (Labcyte, Sunnyvale, CA), and then diluted into assay buffer to generat e a 2X stock in 0.6% DMSO (0.3% final). For Tl+ flux assays on Kir6.2/SUR1 expressing cells, test compounds were diluted in assay buffer containing diazoxide (250 μM final) to induce channel activation. Concentration- response curves (CRCs) were gener ated b y screening compounds at 3-fold dilution series (1 nM - 30 μM).
# Tl+ flux data were anal yzed as previousl y d escri bed (2, 3) using a combination of Excel (Microsoft Corp, Redmond, WA) with XLfit add-in (IDBS, Guildford, Surre y, UK), Ori ginPro […]
# [5] = test system: An. gambiae G3 strain; design: method as in PMID 26047119; conditions: topical, (95% confidence limits); cited from earlier work
# [6] = test system: An. gambiae Akron strain; conditions: topical, (95% confidence limits); cited from earlier work
smiles,measurement,setting,value
"Cc1c(COC(=O)[C@@H]2[C@H](/C=C(\Cl)C(F)(F)F)C2(C)C)cccc1-c1ccccc1 (racemic) [bifenthrin, reference compound]",honey bees dead (mortality),[1],100%
CCC(=O)N1c2ccc(S(=O)(=O)Nc3cccc(OC)c3)cc2CC1C (stereo not drawn) [VU625],IC50,[2],~0.1 µM
same,topical toxicity to mosquitoes,[3],not topically toxic to mosquitoes
O=C(Cn1nc(C(F)(F)F)c2c1CCCC2)N1CCOc2ccccc21 [Compound 14],IC50,[4],4.6 µM
O=C(Cn1nc(C(F)(F)F)c2c1CCCC2)N1CCc2ccccc2C1 [Compound 8],loss of potency vs VU041 (AnKir1),[4],~ 7 fold
same,IC50,[4],15 µM
O=C(CN1CCCc2ccccc21)N1CCCc2ccccc21 [Compound 6],IC50,[4],8 µM
CC1(C)C(C=C(Cl)Cl)C1C(=O)OCc1cccc(Oc2ccccc2)c1 (stereo not drawn) [Permethrin],"ED50, G3 Strain",[5],0.03e-5 (0.02e-5–0.05e-5) μg/mg
same,"ED50, Akron Strain",[6],1.0e-3 (0.8e-4–1.3e-3) μg/mg

# Source: paper PMC5111108, “An insecticide resistance-breaking mosquitocide targeting inward rectifier potassium channels in vectors of Zika virus and malaria” (Scientific Reports, 2016)
